Experimental data as given in US6200962A, “Thionophosphate derivatives, process for their preparation and pharmaceutical compositions containing them” (priority 1994, dated 2001).

How the values were obtained:
[1] = Reaction with hydrogen peroxide followed by 31P NMR
Experimental: ROS reaction with AMTP were recorded by ^31 P NMR spectra. ^31 P spectra were referenced to 1% H3 PO4 in D2 O and used as an external standard.
Two products of oxidation were observed by ^31 P NMR (FIG. 4). One product at 9.106 ppm and the other at -3.556 ppm. The second product indicated another fragmentation in the molecule.
Different reaction rates were recorded by NMR kinetics between hydrogen peroxide and compound B either in a more hydrophilic environment and in a more hydrophobic one (different mixtures of 1,4-dioxane and water) with dielectric constants of 72.63 and 9.58 respectively.

[2] = Hydroxyl radical chemiluminescence method (H2O2, NTA-Fe2+, HRP); conditions: increasing concentrations
Experimental: Chemiluminescence (CL) was measured in mixtures of H2 O2, NTA-Fe^2+ and HRP (Horseradish peroxidase) systems in a LUMAC/3M BIOCONTER M2010 connected to a linear recorder as described [Ginsburg, I. et al. (1993) Inflammation 17:227-243]. The scavenging of hydroxyl radicals was done by various concentrations of AMTP (compound C dissolved in reaction buffer).
where A is the absorbance in the presence of a scavenger S (AMTPs) at a concentration [S] and A0 is the absorbance in the absence of a scavenger KDR =3.1*10^9 (reaction constant between deoxyribose and OH. radical) [Ebert, M., et al. (1965) Pulse Radiolysis, Academic Press, London] and [DR]=18 mM. […] Considering the fast reaction between H2 O2 and Fe^2+ --NTA and the slow reaction rate between AMTP and hydrogen peroxide as monitored in the ^31 P experiments (FIG. 5), the light decay may be exclusively attributed to hydroxyl radical scavenging.

[3] = Lipid hydroperoxides in partially oxidized SUV liposomes; conditions: 5 mM, after 24 h
Experimental: SUV liposomes were prepared from egg lecitin at 10% lipid concentration in a 50 ml HEPES buffer pH=6.9 according to already published procedures [Lichtenberg, D. and Barenholz. Y. (1988) Methods of Biochemical Analysis 33:337-462].
Lipid hydroperoxides were monitored by a modified micromolar sensitive spectroscopic method [Siddiqi, A. M. and Tappel, A. L. (1955) Chemist Analyst 44:52]. 50λ of lipids (liposomes or emulsion) were dissolved in 1 ml ethanol. 50λ of 50% potassium iodide solution were then added and the mixture was incubated for half an hour in the dark. The developed color was read in a spectrophotometer at 400 nm.
SUV Liposomes (12.5 mM) with certain degrees of oxidation were incubated with 5 mM AMTP molecules for period of 24 h. Peroxidation number (PN) was measured with potassium iodide in ethanol. AMTPs were able to decompose lipid hvdroperoxide and to reduce the peroxidation number (PN).

BSA = assay: BSA's cystine oxidation by NaOCl (DTNB); conditions: NaOCl 1 mM
Experimental: BSA (0.5 mg/ml) in Imi HEPES buffer pH=7.2(50 mM) was incubated with sodium hypochlorite (1 mM) for 15 min. The protein was dialyzed for 2 h against 2×500 vol of HEPES buffer to remove free sodium hypochlorite. 301 DTNB 0.015 M in water was then added to the protein solution and color was measured at 420 nm. AMTPs were added to the protein sample to protect it against sodium hypochlorite [Hazell and Stocker, ibid.].
BSA's tryptophan oxidation and BSA's cystine oxidation were the models for protein damage by NaOCl (FIG. 11 and FIG. 12 respectively). BSA fluorescence intensity decreased following oxidative stress of NaOCI (1 mM). […] Out of the three AMTP compounds the most lipophilic (A) was best in preventing the damage and provided 94% protection on the protein.

Which “decomposition by H2O2” value ([1]; 5 mM compound, 100 mM H2O2) does the source give for `CCOP(=S)(NCCO)OCC` [Compound B, 2-hydroxyamido diethyithionophosphate] here?
Its value is “decomposed by H2 O2”.

What about the “reaction rate with hydrogen peroxide vs dielectric constant” value ([1]; 1,4-dioxane/water mixtures, dielectric constants 72.63 and 9.58) of the same molecule?
Its value is “much faster in high dielectric constants”.

What about the “decay of light (hydroxyl radical scavenging)” value [2] of the same molecule?
Its value is “Dose dependent decay of light”.

What about the “reduction of PN, comparative” value [3] of the same molecule?
Its value is “more effective in reducing PN”.

And the “protection of BSA's cystines” value (BSA)?
The value was “strong protection”.
